Measured values reported in patent US11512053B2, “Arginine methyltransferase inhibitors and uses thereof” (priority 2013, dated 2022).

Target: T1, full-length human PRMT3 isoform 1 (GST-tagged) (Homo sapiens, UniProt O60678)
T1 construct: GST-tagged PRMT3; made in house; host or cells: E. coli BL21(DE3) Gold
Test: PRMT3 Biochemical Assay (3H-SAM Flashplate, peptide substrate)
Conditions: single experiment or average of multiple experiments
From the text: General Materials. S-adenosylmethionine (SAM), S-adenosylhomocysteine (SAH), bicine, Tween20, dimethylsulfoxide (DMSO), bovine skin gelatin (BSG),), isopropyl-β-D-thiogalactopyranoside (IPTG), and Tris(2-carboxyethyl)phosphine hydrochloride solution (TCEP) were purchased from Sigma-Aldrich at the highest level of purity possible. ^3H-SAM was purchase from American Radiolabeled Chemicals with a specific activity of 80 Ci/mmol. 384-well streptavidin Flashplates were purchased from PerkinElmer.
Substrates. Peptide containing the classic RMT substrate motif was synthesized with an N-terminal linker-affinity tag motif and a C-terminal amide cap by 21st Century Biochemicals. The peptide was purified by high-performance liquid chromatography (HPLC) to greater than 95% purity and confirmed by liquid chromatography mass spectrometry (LC-MS). The sequence was Biot-Ahx-[…]-amide (SEQ ID NO.:11).
Molecular Biology: Full-length human PRMT3 (NM_005788.3) isoform 1 transcript clone was amplified from an HEK 293 cDNA library and subcloned into pGEX-KG (GE Life Sciences). The resulting construct encodes an N-terminal GST tag and a thrombin cleavage sequence ([…] […] […] […] S) (SEQ ID NO.:12) fused directly to Cys 2 of PRMT3.
Protein Expression. E. coli (BL21(DE3) Gold, Stratagene) made competent by the CaCl2) method were transformed with the PRMT3 construct and ampicillin selection. Protein over-expression was accomplished by growing the PRMT3 expressing E. coli clone and inducing expression with 0.3 mM IPTG at 16° C. The culture was grown for 12 hours, harvested by centrifugation, and stored at −80° C. for purification.
Protein Purification. […] GST-tagged PRMT3 was eluted with 50 mM Tris, 2 mM glutathione, pH 7.1 and 50 mM Tris, 20 mM glutathione, pH 7.1. Pooled fractions were dialysed in 20 mM Tris, 50 mM NaCl, 5% glycerol, 1 mM EDTA, 1 mM DTT, pH7.5 (Buffer B) and applied to a Q Sepharose Fast Flow column. GST-tagged PRMT3 was eluted by 500 mM NaCl in buffer B. Pooled fractions were dialyzed in 25 mM phosphate buffer, 100 mM NaCl, 5% glycerol, 2 mM DTT, pH 6.8 (Buffer C) and loaded on to a ceramic hydroxyapatite column. GST-tagged PRMT3 eluted with 25-400 mM phosphate in buffer C. Protein was concentrated and buffer was exchanged to 20 mM Tris, 150 mM NaCl, 5% glycerol, 5 mM β-mercaptoethanol, pH7.8 by ultrafiltration. The purity of recovered protein was 70%.
General Procedure for PRMT3 Enzyme Assays on Peptide Substrates. The assays were all performed in a buffer consisting of 20 mM Bicine (pH=7.6), 1 mM TCEP, 0.005% BSG, and 0.002% Tween 20, prepared on the day of use. Compounds in 100% DMSO (1 ul) were spotted into a polypropylene 384-well V-bottom plates (Greiner) using a Platemate Plus outfitted with a 384-channel head (Thermo Scientific). DMSO (1 ul) was added to Columns 11, 12, 23, 24, rows A-H for the maximum signal control and 1 ul of SAH, a known product and inhibitor of PRMT3, was added to columns 11, 12, 23, 24, rows I-P for the minimum signal control. A cocktail (40 ul) containing the PRMT3 enzyme was added by Multidrop Combi (Thermo-Fisher). The compounds were allowed to incubate with PRMT3 for 30 min at room temperature, then a cocktail (10 ul) containing SAM and peptide was added to initiate the reaction (final volume=51 ul). The final concentrations of the components were as follows: PRMT3 was 0.5 nM, ^3H-SAM was 100 nM, non-radiolabeled SAM was 1.8 uM, peptide was 330 nM, SAH in the minimum signal control wells was 1 mM, and the DMSO concentration was 2%. The assays were stopped by the addition of potassium chloride (10 ul) to a final concentration of 100 mM. 50 ul of the reaction in the 384-well polypropylene plate was then transferred to a 384-well Flashplate and the biotinylated peptides were allowed to bind to the streptavidin surface for at least 1 hour before being washed once with 0.1% Tween20 in a Biotek ELx405 plate washer. […]

T1 sequence (O60678 with tags, fused parts or gaps): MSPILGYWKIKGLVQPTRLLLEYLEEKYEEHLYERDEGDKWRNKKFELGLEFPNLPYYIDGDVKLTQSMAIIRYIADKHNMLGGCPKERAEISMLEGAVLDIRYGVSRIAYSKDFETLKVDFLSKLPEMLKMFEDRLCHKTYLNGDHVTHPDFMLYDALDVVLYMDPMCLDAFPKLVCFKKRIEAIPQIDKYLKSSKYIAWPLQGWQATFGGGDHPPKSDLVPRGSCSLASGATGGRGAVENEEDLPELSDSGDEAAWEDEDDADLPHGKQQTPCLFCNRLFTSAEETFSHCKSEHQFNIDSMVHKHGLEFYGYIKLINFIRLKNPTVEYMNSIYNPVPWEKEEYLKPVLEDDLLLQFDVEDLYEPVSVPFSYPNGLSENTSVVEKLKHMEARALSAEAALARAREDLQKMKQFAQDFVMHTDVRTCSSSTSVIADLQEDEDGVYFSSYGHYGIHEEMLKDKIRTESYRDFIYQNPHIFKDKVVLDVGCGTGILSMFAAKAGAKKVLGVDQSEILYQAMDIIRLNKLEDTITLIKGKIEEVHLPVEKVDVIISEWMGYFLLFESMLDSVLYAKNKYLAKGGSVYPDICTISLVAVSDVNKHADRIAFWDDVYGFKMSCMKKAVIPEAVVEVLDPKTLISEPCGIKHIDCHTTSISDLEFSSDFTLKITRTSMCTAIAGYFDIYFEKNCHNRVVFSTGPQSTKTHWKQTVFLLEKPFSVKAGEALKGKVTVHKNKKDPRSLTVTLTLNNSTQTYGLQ

IC50: 9.4 µM
SMILES: CNCCN(C)Cc1c[nH]nc1C#Cc1ccccc1 [Compound 3]
